From publication PMC5852267, “Influence of quaternary cation compound on the size of the Escherichia coli small multidrug resistance protein, EmrE” (Biochemistry and Biophysics Reports, 2018)
Where two headings read alike, the source gives them in different places.

Target: T1, EmrE (EmrE-Myc-His6; His6-myc-EmrE) (Escherichia coli, UniProt P23895)
T1 construct: plasmid pTZEmrEmH6; E. coli C43(DE3); dimer considered minimal functional unit
Experiment: biochemical
Format: binding

T1 sequence (P23895 whole entry): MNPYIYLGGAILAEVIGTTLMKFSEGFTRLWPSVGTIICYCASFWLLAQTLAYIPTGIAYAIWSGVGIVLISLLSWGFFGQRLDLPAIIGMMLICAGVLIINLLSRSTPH

Row | SMILES | Kd (read-out: Kd) [µM] | Kd [µM]
1 | CCCCCCCCCCCCCCCC[N+](C)(C)Cc1ccccc1 [CTC, Cetalkonium chloride (Banjela) (16 Chain)] | 407 ± 133 | –
2 | CN(C)c1ccc(C(=C2C=CC(=[N+](C)C)C=C2)c2ccc(N(C)C)cc2)cc1 [CV, Crystal Violet] | – | 16 ± 5.7
3 | Cc1cc(N)c2ccccc2[n+]1CCCCCCCCCC[n+]1c(C)cc(N)c2ccccc21 [DC, Dequalinium chloride] | – | 11 ± 2.2
4 | CC[n+]1c(-c2ccccc2)c2cc(N)ccc2c2ccc(N)cc21 [EB, Ethidium bromide] | – | 1 ± 0.3
5 | C[n+]1ccc(-c2cc[n+](C)cc2)cc1 [MV, Methyl Viologen] | 179 ± 19.9 | –
6 | Nc1ccc2cc3ccc(N)cc3nc2c1 [PRO, Proflavine] | – | 14 ± 5
7 | CCN=c1cc2oc3cc(NCC)c(C)cc3c(-c3ccccc3C(=O)OCC)c-2cc1C [RH, Rhodamine 6 G] | – | 12 ± 1.4
8 | c1ccc([P+](c2ccccc2)(c2ccccc2)c2ccccc2)cc1 [TPP, Tetraphenylphosphonium chloride] | 5 ± 3.7 | –
